Data published in patent US8436012B2, “Imidazopyridin-2-one derivatives” (Daiichi Sankyo Company, Limited, priority 2008, dated 2013).
pIC50: −log10 of the molar value.

Assays:
[1] = system: WM-266-4 cells; experiment: Cell Proliferation Inhibitory Test; assay type: cell-based; conditions: Homo sapiens, 72 h, cultured three days with test compound, MTT, read-out: 50% cell proliferation inhibitory activity (GI50 value)
Summary of the method: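 Cells cultured overnight, then exposed to serially diluted compound for three days; cell amount read by MTT. GI50 solved from 100×[(T−T0)/(C−T0)]=50, with T0 the value at time of compound addition and C the untreated three-day control.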

[2] = target: T1, human mTOR (Homo sapiens, UniProt P42345); experiment: mTOR Kinase Activity Inhibition Test; assay type: biochemical; conditions: His-tagged mTOR (1362C), biotinylated peptide substrate, ATP, 3 hours at room temperature, fluorescence resonance energy transfer 665 nm/620 nm; read-out: IC50 value of mTOR enzyme inhibitory activity
T1 construct: the portion corresponding to 1362-2549aa at the C terminus of human mTOR; made in house
T1 sequence (P42345 1362-2549): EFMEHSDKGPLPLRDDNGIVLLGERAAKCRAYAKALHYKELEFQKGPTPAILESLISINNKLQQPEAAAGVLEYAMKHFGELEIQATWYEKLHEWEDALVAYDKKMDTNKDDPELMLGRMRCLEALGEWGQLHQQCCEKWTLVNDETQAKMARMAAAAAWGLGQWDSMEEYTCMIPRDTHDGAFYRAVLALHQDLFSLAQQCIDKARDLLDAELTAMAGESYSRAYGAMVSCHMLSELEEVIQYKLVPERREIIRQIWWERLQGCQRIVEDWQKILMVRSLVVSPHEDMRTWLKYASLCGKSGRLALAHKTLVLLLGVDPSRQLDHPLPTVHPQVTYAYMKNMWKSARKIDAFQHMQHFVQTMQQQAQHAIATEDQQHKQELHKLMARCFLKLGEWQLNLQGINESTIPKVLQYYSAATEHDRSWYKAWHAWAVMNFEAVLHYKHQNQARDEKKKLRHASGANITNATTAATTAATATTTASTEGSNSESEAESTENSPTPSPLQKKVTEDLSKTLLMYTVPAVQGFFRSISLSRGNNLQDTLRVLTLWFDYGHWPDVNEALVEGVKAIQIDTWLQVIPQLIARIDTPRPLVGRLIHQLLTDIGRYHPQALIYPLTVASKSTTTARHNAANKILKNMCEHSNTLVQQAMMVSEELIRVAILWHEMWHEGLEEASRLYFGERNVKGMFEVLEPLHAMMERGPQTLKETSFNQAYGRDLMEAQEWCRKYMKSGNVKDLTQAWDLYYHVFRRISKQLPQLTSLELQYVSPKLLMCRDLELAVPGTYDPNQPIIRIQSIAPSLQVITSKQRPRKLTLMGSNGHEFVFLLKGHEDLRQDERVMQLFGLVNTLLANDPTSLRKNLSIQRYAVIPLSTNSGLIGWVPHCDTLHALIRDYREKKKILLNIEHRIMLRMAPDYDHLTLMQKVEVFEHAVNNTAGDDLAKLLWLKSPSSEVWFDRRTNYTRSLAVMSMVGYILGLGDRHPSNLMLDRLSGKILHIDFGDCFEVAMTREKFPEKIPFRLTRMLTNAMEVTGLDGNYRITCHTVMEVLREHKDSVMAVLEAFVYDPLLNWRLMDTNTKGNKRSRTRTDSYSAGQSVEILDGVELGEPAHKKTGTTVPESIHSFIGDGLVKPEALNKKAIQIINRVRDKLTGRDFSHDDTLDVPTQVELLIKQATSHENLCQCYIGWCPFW
Summary of the method: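 Purified His-tagged human mTOR (1362–2549aa, from HEK293) was used with biotinylated peptide (8 μg/mL in enzyme solution) in HEPES pH 7.5 with 20 mM MnCl2. Compounds were diluted in 20 μM ATP solution, and the reaction ran 3 h at RT. Phospho-S6K(Thr389) HTRF was read as the 665/620 nm ratio, and IC50 came from % inhibition versus controls.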

Row | Compound | pIC50 [2] | GI50 [1] [nM]
1 | O=c1[nH]c2ncc(-c3cnc4ccnn4c3)cc2n1CC1CCOCC1 [Example 73, 6-Pyrazolo[1,5-a]pyrimidin-6-yl-1-(tetrahydro-2H-pyran-4-ylmethyl)-1,3-dihydro-2H-imidazo[4,5-b]pyridin-2-one] | 5.30 to 7.00 | 3000 to 25000
2 | O=c1[nH]c2ncc(-c3cnc4[nH]ncc4c3)cc2n1CC1CCOCC1 [Example 74, 6-(1H-Pyrazolo[3,4-b]pyridin-5-yl)-1-(tetrahydro-2H-pyran-4-ylmethyl)-1,3-dihydro-2H-imidazo[4,5-b]pyridin-2-one] | 5.30 to 7.00 | 3000 to 25000
3 | O=c1[nH]c2ncc(-c3cnc4[nH]ccc4n3)cc2n1CC1CCOCC1 [Example 75, 6-(5H-Pyrrolo[2,3-b]pyrazin-2-yl)-1-(tetrahydro-2H-pyran-4-ylmethyl)-1,3-dihydro-2H-imidazo[4,5-b]pyridin-2-one] | 7.00 to 7.30 | < 3000
4 | Nc1c[nH]c2ncc(-c3cnc4[nH]c(=O)n(CC5CCOCC5)c4c3)cc12 [Example 77, 6-(3-Amino-1H-pyrrolo[2,3-b]pyridin-5-yl)-1-(tetrahydro-2H-pyran-4-ylmethyl)-1,3-dihydro-2H-imidazo[4,5-b]pyridin-2-one] | 7.00 to 7.30 | 3000 to 25000
5 | O=c1[nH]c2ncc(-c3cnc4[nH]cc(C(F)(F)F)c4c3)cc2n1CC1CCOCC1 [Example 84, 1-(Tetrahydro-2H-pyran-4-ylmethyl)-6-[3-(trifluoromethyl)-1H-pyrrolo[2,3-b]pyridin-5-yl]-1,3-dihydro-2H-imidazo[4,5-b]pyridin-2-one] | > 7.30 | 3000 to 25000
6 | CC(=O)c1c[nH]c2ncc(-c3cnc4[nH]c(=O)n(CC5CCOCC5)c4c3)cc12 [Example 85, 6-(3-Acetyl-1H-pyrrolo[2,3-b]pyridin-5-yl)-1-(tetrahydro-2H-pyran-4-ylmethyl)-1,3-dihydro-2H-imidazo[4,5-b]pyridin-2-one] | 5.30 to 7.00 | 3000 to 25000
7 | CCOCc1cc2cc(-c3cnc4[nH]c(=O)n(CC5CCOCC5)c4c3)cnc2[nH]1 [Example 86, 6-[2-(Ethoxymethyl)-1H-pyrrolo[2,3-b]pyridin-5-yl]-1-(tetrahydro-2H-pyran-4-ylmethyl)-1,3-dihydro-2H-imidazo[4,5-b]pyridin-2-one] | 5.30 to 7.00 | 3000 to 25000
8 | Cc1[nH]c2ncc(-c3cnc4[nH]c(=O)n(CC5CCOCC5)c4c3)cc2c1C [Example 87, 6-(2,3-Dimethyl-1H-pyrrolo[2,3-b]pyridin-5-yl)-1-(tetrahydro-2H-pyran-4-ylmethyl)-1,3-dihydro-2H-imidazo[4,5-b]pyridin-2-one] | 5.30 to 7.00 | 3000 to 25000
9 | O=c1[nH]c2ncc(-c3cnc4cc[nH]c4c3)cc2n1CC1CCOCC1 [Example 88, 6-(1H-Pyrrolo[3,2-b]pyridin-6-yl)-1-(tetrahydro-2H-pyran-4-ylmethyl)-1,3-dihydro-2H-imidazo[4,5-b]pyridin-2-one] | 5.30 to 7.00 | < 3000
10 | CN(C)Cc1c[nH]c2ncc(-c3cnc4[nH]c(=O)n(CC5CCOCC5)c4c3)cc12 [Example 89, 6-{3-[(Dimethylamino)methyl]-1H-pyrrolo[2,3-b]pyridin-5-yl}-1-(tetrahydro-2H-pyran-4-ylmethyl)-1,3-dihydro-2H-imidazo[4,5-b]pyridin-2-one] | 5.30 to 7.00 | 3000 to 25000
11 | CC(C)c1c[nH]c2ncc(-c3cnc4[nH]c(=O)n(CC5CCOCC5)c4c3)cc12 [Example 90, 6-{3-Isopropyl-1H-pyrrolo[2,3-b]pyridin-5-yl}-1-(tetrahydro-2H-pyran-4-ylmethyl)-1,3-dihydro-2H-imidazo[4,5-b]pyridin-2-one] | > 7.30 | < 3000
12 | N#Cc1c(-c2cnc3[nH]c(=O)n(CC4CCOCC4)c3c2)cnc2[nH]ccc12 [Example 91, 5-[2-Oxo-1-(tetrahydro-2H-pyran-4-ylmethyl)-2,3-dihydro-1H-imidazo[4,5-b]pyridin-6-yl]-1H-pyrrolo[2,3-b]pyridine-4-carbonitrile] | 5.30 to 7.00 | < 3000
13 | CCOC(=O)c1c[nH]c2ncc(-c3cnc4[nH]c(=O)n(CC5CCOCC5)c4c3)cc12 [Example 92, Ethyl 5-[2-oxo-1-(tetrahydro-2H-pyran-4-ylmethyl)-2,3-dihydro-1H-imidazo[4,5-b]pyridin-6-yl]-1H-pyrrolo[2,3-b]pyridine-3-carboxylate] | > 7.30 | < 3000
14 | O=C(O)c1c[nH]c2ncc(-c3cnc4[nH]c(=O)n(CC5CCOCC5)c4c3)cc12 [Example 93, 5-[2-oxo-1-(tetrahydro-2H-pyran-4-ylmethyl)-2,3-dihydro-1H-imidazo[4,5-b]pyridin-6-yl]-1H-pyrrolo[2,3-b]pyridine-3-carboxylic acid] | > 7.30 | 3000 to 25000
15 | CNC(=O)c1c[nH]c2ncc(-c3cnc4[nH]c(=O)n(CC5CCOCC5)c4c3)cc12 [Example 94, N-Methyl-5-[2-oxo-1-(tetrahydro-2H-pyran-4-ylmethyl)-2,3-dihydro-1H-imidazo[4,5-b]pyridin-6-yl]-1H-pyrrolo[2,3-b]pyridine-3-carboxamide] | 5.30 to 7.00 | 3000 to 25000
16 | N#Cc1c[nH]c2ncc(-c3cnc4[nH]c(=O)n(CC5CCOCC5)c4c3)cc12 [Example 95, 5-[2-Oxo-1-(tetrahydro-2H-pyran-4-ylmethyl)-2,3-dihydro-1H-imidazo[4,5-b]pyridin-6-yl]-1H-pyrrolo[2,3-b]pyridine-3-carbonitrile] | > 7.30 | 3000 to 25000
17 | O=c1[nH]c2ncc(-c3cnc4[nH]cc(F)c4c3)cc2n1CC1CCOCC1 [Example 96, 6-(3-Fluoro-1H-pyrrolo[2,3-b]pyridin-5-yl)-1-(tetrahydro-2H-pyran-4-ylmethyl)-1,3-dihydro-2H-imidazo[4,5-b]pyridin-2-one] | > 7.30 | < 3000

Continued, in another order:

Row | pIC50 [2] | Compound | GI50 [1] [nM]
18 | > 7.30 | CS(=O)(=O)N1CCN(CCn2c(=O)[nH]c3ncc(-c4cnc5[nH]ccc5c4)cc32)CC1 [Example 60, 1-{2-[4-(Methylsulfonyl)piperazin-1-yl]ethyl}-6-(1H-pyrrolo[2,3-b]pyridin-5-yl)-1,3-dihydro-2H-imidazo[4,5-b]pyridin-2-one] | < 3000
19 | > 7.30 | COC1(Cn2c(=O)[nH]c3ncc(-c4cnc5[nH]ccc5c4)cc32)CCOCC1 [Example 68, 1-[(4-Methoxytetrahydro-2H-pyran-4-yl)methyl]-6-(1H-pyrrolo[2,3-b]pyridin-5-yl)-1,3-dihydro-2H-imidazo[4,5-b]pyridin-2-one] | < 3000
20 | > 7.30 | O=c1[nH]c2ncc(-c3cnc4[nH]ccc4c3)cc2n1CC1(F)CCOCC1 [Example 69, 1-[(4-Fluorotetrahydro-2H-pyran-4-yl)methyl]-6-(1H-pyrrolo[2,3-b]pyridin-5-yl)-1,3-dihydro-2H-imidazo[4,5-b]pyridin-2-one] | < 3000
21 | > 7.30 | C[C@@H]1C[C@H](Cn2c(=O)[nH]c3ncc(-c4cnc5[nH]ccc5c4)cc32)C[C@H](C)O1 [Example 71, 1-{[(2R-4r-6S)-2,6-Dimethyltetrahydro-2H-pyran-4-yl]methyl}-6-(1H-pyrrolo-[2,3-b]pyridin-5-yl)-1,3-dihydro-2H-imidazo[4,5-b]pyridin-2-one] | < 3000
22 | > 7.30 | Nc1n[nH]c2ccc(-c3cnc4[nH]c(=O)n(CC5CCOCC5)c4c3)cc12 [Example 72, 6-(3-Amino-1H-indazol-5-yl)-1-(tetrahydro-2H-pyran-4-ylmethyl)-1,3-dihydro-2H-imidazo[4,5-b]pyridin-2-one] | 3000 to 25000
23 | > 7.30 | O=c1[nH]c2ncc(-c3cc4cc[nH]c4nn3)cc2n1CC1CCOCC1 [Example 76, 6-(7H-Pyrrolo[2,3-c]pyridazin-3-yl)-1-(tetrahydro-2H-pyran-4-ylmethyl)-1,3-dihydro-2H-imidazo[4,5-b]pyridin-2-one] | 3000 to 25000
24 | > 7.30 | O=c1[nH]c2ncc(-c3cc4cc[nH]c4nc3Cl)cc2n1CC1CCOCC1 [Example 78, 6-(6-Chloro-1H-pyrrolo[2,3-b]pyridin-5-yl)-1-(tetrahydro-2H-pyran-4-ylmethyl)-1,3-dihydro-2H-imidazo[4,5-b]pyridin-2-one] | < 3000
25 | > 7.30 | O=c1[nH]c2ncc(-c3cc4cc[nH]c4nc3F)cc2n1CC1CCOCC1 [Example 79, 6-(6-Fluoro-1H-pyrrolo[2,3-b]pyridin-5-yl)-1-(tetrahydro-2H-pyran-4-ylmethyl)-1,3-dihydro-2H-imidazo[4,5-b]pyridin-2-one] | < 3000
26 | > 7.30 | O=Cc1c[nH]c2ccc(-c3cnc4[nH]c(=O)n(CC5CCOCC5)c4c3)cc12 [Example 81, 5-[2-Oxo-1-(tetrahydro-2H-pyran-4-ylmethyl)-2,3-dihydro-1H-imidazo[4,5-b]pyridin-6-yl]-1H-indole-3-carbaldehyde] | < 3000
27 | > 7.30 | O=c1[nH]c2ncc(-c3ccc4[nH]ccc4n3)cc2n1CC1CCOCC1 [Example 82, 6-(1H-Pyrrolo[3,2-b]pyridin-5-yl)-1-(tetrahydro-2H-pyran-4-ylmethyl)-1,3-dihydro-2H-imidazo[4,5-b]pyridin-2-one] | < 3000
28 | > 7.30 | O=c1[nH]c2ncc(-c3cc4cc[nH]c4cn3)cc2n1CC1CCOCC1 [Example 83, 6-(1H-Pyrrolo[2,3-c]pyridin-5-yl)-1-(tetrahydro-2H-pyran-4-ylmethyl)-1,3-dihydro-2H-imidazo[4,5-b]pyridin-2-one] | < 3000
